Earlier results in US20250074935A1, “HETERODIMER COMPOSITIONS AND METHODS FOR THE TREATMENT OF OCULAR DISORDERS” (Ripple Therapeutics Corporation, priority 2020, published 2025).

Settings: given once a day

CC(C)OC(=O)CCC/C=C\C[C@@H]1[C@@H](CC[C@@H](O)CCc2ccccc2)[C@H](O)C[C@@H]1O [latanoprost]
mean IOP lowering: about 35%
